Assay results taken from patent publication US20150342193A1, “Herbicidal Composition” (priority 2012, published 2015).

Key:
Experiment in all cases: greenhouse post-emergence treatment, herbicidal activity
AMBEL = format: in vivo, Ambrosia artemisiifolia
Method: (§1) The culture containers used were plastic pots containing loamy sand with approximately 2-3.0% of organic matter. The seeds of the test plants were sown separately for each species.
(§2) For the post-emergence treatment, the test plants were grown to a plant height of from 3 to 15 cm, depending on the plant habit, and only then treated with the active compounds which had been suspended or emulsified in water. To this end, the test plants were either sown directly, and grown in the same containers, or they were first grown separately as seedlings and transplanted into the test containers a few days prior to treatment.
(§3) Depending on the species, the plants were kept at 10-25° C. and 20-35° C., respectively. The test period extended over 2 to 4 weeks. During this time, the plants were tended and their response to the individual treatments was evaluated.
(§4) Evaluation was carried out using a scale from 0 to 100. 100 means no emergence of the plants, or complete destruction of at least the above-ground parts, and 0 means no damage or normal course of growth. A good herbicidal activity is given at values of at least 70, and very good herbicidal activity is given at values of at least 85.
(§5) In the examples below, using the method of S. R. Colby (1967) “Calculating synergistic and antagonistic responses of herbicide combinations”, Weeds 15, p. 22ff., the value E, which is expected if the activity of the individual active compounds is only additive, was calculated.
(§6) where X=percent activity using active compound A at an application rate a; Y=percent activity using active compound B at an application rate b; E=expected activity (in %) by A+B at application rates a+b.
(§7) where X=percent activity using active compound A at an application rate a; Y=percent activity using active compound B at an application rate b; Z=percent activity using active compound D at an application rate d; E=expected activity (in %) by A+B+D at application rates a+b+d.
(§8) If the value found experimentally is higher than the value E calculated according to Colby, a synergistic effect is present.
(§9) For preparation of the mixtures herbicides A were used in form of an aqueous solution comprising 22.5% by weight of the respective herbicide A. The herbicides B and D were used in form of the respective commercially available formulations as identified below. 1,5-dimethyl-6-thioxo-3-(2,2,7-trifluoro-3-oxo-4-(prop-2-ynyl)-3,4-dihydro-2H-benzo[b][1,4]oxazin-6-yl)-1,3,5-triazinane-2,4-dione (B.14) was used in form of 10% by weight suspension concentrate. If appropriate, the adjuvant DASH® HC was added to the mixtures.

BRADC = format: in vivo, Brachiaria decumbens
Method: as §1, §2, §3
(§10) Evaluation was carried out using a scale from 0 to 100. […]
(§11) In the examples below, using the method of S. R. Colby (1967) “Calculating synergistic and antagonistic responses of herbicide combinations”, Weeds 15, p. 22ff., the value E, which is expected if the activity of the individual active compounds is only additive, was calculated. […]
(§12) If the value found experimentally is higher than the value E calculated according to Colby, a synergistic effect is present. […]

POLPE = format: in vivo, Polygonum persicaria
Method: as §1, §2, §3, §4, §5, §6, §7, §8, §9

ERICA = format: in vivo, Erigeron canadensis
Method: as §1, §2, §3, §4, §5, §6, §7, §8, §9

ECHCG = format: in vivo, Echinochloa crus-galli
Method: as §1, §2, §3, §4, §5, §6, §7, §12

ABUTH = format: in vivo, Abutilon theophrasti
Method: as §1, §2, §3, §4, §5, §6, §7, §12

COMBE = format: in vivo, Commelina benghalensis
Method: as §1, §2, §3, §10, §11, §12

HELAN = format: in vivo, Helianthus annuus
Method: as §1, §2, §3, §4, §5, §6, §7, §8, §9

DIGSA = format: in vivo, Digitaria sanguinales
Method: as §1, §2, §3, §4, §5, §6, §7, §8, §9

CHEAL = format: in vivo, Chenopodium album
Method: as §1, §2, §3, §4, §5, §6, §7, §12

PANDI = format: in vivo, Panicum dichotomiflorun
Method: as §1, §2, §3, §4, §5, §6, §7, §8, §9

ERBVI = format: in vivo, Eriochloa villosa; conditions: Example 4 (title: +1% by weight DASH® HC)
Method: as §1, §2, §3, §10, §11, §12

BRAPP = format: in vivo, Urochloa platyphylla; conditions: Example 10, 31.25 g/ha a.i.
Method: as §1, §2, §3, §10, §11, §12

PHACA = format: in vivo, Phalaris canariensis L.; conditions: Example 10, 31.25 g/ha a.i.
Method: as §1, §2, §3, §10, §11, §12

CYPES = format: in vivo, Cyperus esculentus; conditions: Example 6 (title: +1% by weight DASH® HC)
Method: as §1, §2, §3, §10, §11, §12

PHBPU = format: in vivo, Pharbitis purpurea
Method: as §1, §2, §3, §4, §5, §6, §7, §8, §9

[1] = Example 5 (title: +1% by weight DASH® HC); post-emergence; a1) 31.25 g/ha a.i.
[2] = Example 5 (title: +1% by weight DASH® HC), post-emergence, B.28 31.25 g/ha a.i.

## O=C(O)CNCP(=O)(O)O [B.26, glyphosate]
AMBEL; Example 12, post-emergence, B.26 15 g/ha a.i.
  herbicidal activity against AMBEL found: 75%
BRADC; Example 1, 135 g/ha a.i.
  herbicidal activity against BRADC found: 80%
POLPE; Example 1, 135 g/ha a.i.
  herbicidal activity against POLPE found: 60%

## CP(=O)(O)CCC(N)C(=O)O (stereo not shown) [B.27, glufosinate]
ERICA; Example 8 (title: +1% by weight DASH® HC), 100 g/ha a.i.
  herbicidal activity against ERICA found: 65%

## Cc1c(C(=O)c2cnn(C)c2O)ccc(S(C)(=O)=O)c1C1=NOCC1 [B.25, topramezone]
ECHCG; Example 9, 12.5 g/ha a.i.
  herbicidal activity against ECHCG found: 40%
ABUTH; Example 9, 25 g/ha a.i.
  herbicidal activity against ABUTH found: 90%
COMBE; Example 2, 12.5 g/ha a.i.
  herbicidal activity against COMBE found: 60%
HELAN; Example 2, 12.5 g/ha a.i.
  herbicidal activity against HELAN found: 80%
POLPE; Example 2, 12.5 g/ha a.i.
  herbicidal activity against POLPE found: 75%
DIGSA; Example 2, 12.5 g/ha a.i.
  herbicidal activity against DIGSA found: 65%
DIGSA; Example 9, 12.5 g/ha a.i.
  herbicidal activity against DIGSA found: 70%
CHEAL; Example 9, 12.5 g/ha a.i.
  herbicidal activity against CHEAL found: 25%

## CCNc1nc(Cl)nc(NC(C)C)n1 [D.3, atrazine]
ECHCG; Example 9, 150 g/ha a.i.
  herbicidal activity against ECHCG found: 0%
ABUTH; Example 9, 150 g/ha a.i.
  herbicidal activity against ABUTH found: 60%
DIGSA; Example 9, 150 g/ha a.i.
  herbicidal activity against DIGSA found: 0%
CHEAL; Example 9, 150 g/ha a.i.
  herbicidal activity against CHEAL found: 35%

## C/C=C1/CC2=C(C(=O)OC2=O)[C@H](CCC)[C@H](O)C(=O)C[C@@H]1O [a1), cornexistin]
PANDI; Example 4 (title: +1% by weight DASH® HC), post-emergence, 62.5 g/ha a.i.
  herbicidal activity against PANDI found: 95%
PANDI; [1]
  herbicidal activity against PANDI found: 90%
PANDI; Example 6 (title: +1% by weight DASH® HC), post-emergence, 62.5 g/ha a.i.
  herbicidal activity against PANDI found: 95%
ERBVI; 62.5 g/ha a.i.
  herbicidal activity against ERBVI found: 90%
BRAPP
  herbicidal activity against BRAPP found: 25%
ECHCG; Example 9, 31.25 g/ha a.i.
  herbicidal activity against ECHCG found: 30%
ERICA; Example 3, 125 g/ha a.i.
  herbicidal activity against ERICA found: 40%
ERICA; Example 7 (title: +1% by weight DASH® HC), 31.25 g/ha a.i.
  herbicidal activity against ERICA found: 40%
ERICA; Example 8 (title: +1% by weight DASH® HC), 31.25 g/ha a.i.
  herbicidal activity against ERICA found: 20%
PHACA
  herbicidal activity against PHACA found: 25%
AMBEL; Example 3, post-emergence, 125 g/ha a.i.
  herbicidal activity against AMBEL found: 65%
AMBEL; Example 11, post-emergence, 62.5 g/ha a.i.
  herbicidal activity against AMBEL found: 90%
AMBEL; Example 12; post-emergence; a1) 15 g/ha a.i.
  herbicidal activity against AMBEL found: 35%
ABUTH; Example 9, 31.25 g/ha a.i.
  herbicidal activity against ABUTH found: 60%
COMBE; Example 2, 125 g/ha a.i.
  herbicidal activity against COMBE found: 60%
CYPES; 62.5 g/ha a.i.
  herbicidal activity against CYPES found: 0%
HELAN; Example 2, 125 g/ha a.i.
  herbicidal activity against HELAN found: 20%
HELAN; Example 3, 125 g/ha a.i.
  herbicidal activity against HELAN found: 20%
BRADC; Example 1, 125 g/ha a.i.
  herbicidal activity against BRADC found: 50%
POLPE; Example 1, 125 g/ha a.i.
  herbicidal activity against POLPE found: 60%
POLPE; Example 2, 125 g/ha a.i.
  herbicidal activity against POLPE found: 60%
DIGSA; Example 2, 125 g/ha a.i.
  herbicidal activity against DIGSA found: 90%
DIGSA; Example 9, 31.25 g/ha a.i.
  herbicidal activity against DIGSA found: 25%
PHBPU; [1]
  herbicidal activity against PHBPU found: 70%
PHBPU; Example 7 (title: +1% by weight DASH® HC), post-emergence, 31.25 g/ha a.i.
  herbicidal activity against PHBPU found: 70%
CHEAL; Example 9, 31.25 g/ha a.i.
  herbicidal activity against CHEAL found: 0%

## COc1c(Cl)ccc(Cl)c1C(=O)O [B.32, dicamba]
ERICA; Example 3, 60 g/ha a.i.
  herbicidal activity against ERICA found: 95%
AMBEL; Example 3, post-emergence, 60 g/ha a.i.
  herbicidal activity against AMBEL found: 85%
HELAN; Example 3, 60 g/ha a.i.
  herbicidal activity against HELAN found: 80%

## CCOC(=O)C(Cl)Cc1cc(-n2nc(C)n(C(F)F)c2=O)c(F)cc1Cl (stereo not shown) [B.7, carfentrazone-ethyl]
AMBEL; Example 11, post-emergence, 15 g/ha a.i.
  herbicidal activity against AMBEL found: 75%
AMBEL; Example 12, post-emergence, B.7 68 g/ha a.i.
  herbicidal activity against AMBEL found: 70%

## CC(C)N(C)S(=O)(=O)NC(=O)c1cc(-n2c(=O)cc(C(F)(F)F)n(C)c2=O)c(F)cc1Cl [B.12, saflufenacil]
PANDI; Example 4 (title: +1% by weight DASH® HC), post-emergence, 6.25 g/ha a.i.
  herbicidal activity against PANDI found: 95%
ERBVI; 6.25 g/ha a.i.
  herbicidal activity against ERBVI found: 80%

## Cc1ccc2c(c1)[C@H](Nc1nc(N)nc(C(C)F)n1)[C@@H](C)C2 (stereo partly shown) [B.28, indaziflam]
PANDI; [2]
  herbicidal activity against PANDI found: 80%
PANDI; Example 6 (title: +1% by weight DASH® HC), post-emergence, 6.25 g/ha a.i.
  herbicidal activity against PANDI found: 60%
ERICA; Example 7 (title: +1% by weight DASH® HC), 75 g/ha a.i.
  herbicidal activity against ERICA found: 75%
CYPES; 6.25 g/ha a.i.
  herbicidal activity against CYPES found: 55%
PHBPU; [2]
  herbicidal activity against PHBPU found: 98%
PHBPU; Example 7 (title: +1% by weight DASH® HC), post-emergence, 75 g/ha a.i.
  herbicidal activity against PHBPU found: 65%
